The target in one series is T1, Getatinase A (Homo sapiens, UniProt P08253).
T1 sequence (P08253 110-660): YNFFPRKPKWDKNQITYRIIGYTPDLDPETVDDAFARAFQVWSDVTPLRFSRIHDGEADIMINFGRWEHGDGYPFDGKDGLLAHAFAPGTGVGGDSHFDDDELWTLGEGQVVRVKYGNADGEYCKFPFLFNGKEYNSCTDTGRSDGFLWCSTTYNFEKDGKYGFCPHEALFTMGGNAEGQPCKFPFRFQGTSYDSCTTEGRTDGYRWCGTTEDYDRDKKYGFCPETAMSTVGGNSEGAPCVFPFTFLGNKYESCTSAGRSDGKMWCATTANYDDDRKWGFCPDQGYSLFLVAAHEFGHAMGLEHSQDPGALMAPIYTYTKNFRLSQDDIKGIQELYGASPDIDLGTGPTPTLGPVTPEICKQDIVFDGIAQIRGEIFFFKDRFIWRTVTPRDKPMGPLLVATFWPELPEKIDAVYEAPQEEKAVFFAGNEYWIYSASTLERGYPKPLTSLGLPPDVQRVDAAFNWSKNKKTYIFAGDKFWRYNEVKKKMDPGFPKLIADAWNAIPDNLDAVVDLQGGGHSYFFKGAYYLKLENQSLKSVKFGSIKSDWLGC
Description: biochemical.

For a further series, the target named is Stromelysin-1 (Homo sapiens, UniProt P08254). Description: biochemical.
A further series in a line: aqueous solubility. The class given is physicochemical. The note with it: for solubility: water, read-out: Aq. solubility.
Series [1] has as its target T2, Human fibroblast collagenase (Homo sapiens, UniProt P03956).
T2 sequence (P03956 100-469): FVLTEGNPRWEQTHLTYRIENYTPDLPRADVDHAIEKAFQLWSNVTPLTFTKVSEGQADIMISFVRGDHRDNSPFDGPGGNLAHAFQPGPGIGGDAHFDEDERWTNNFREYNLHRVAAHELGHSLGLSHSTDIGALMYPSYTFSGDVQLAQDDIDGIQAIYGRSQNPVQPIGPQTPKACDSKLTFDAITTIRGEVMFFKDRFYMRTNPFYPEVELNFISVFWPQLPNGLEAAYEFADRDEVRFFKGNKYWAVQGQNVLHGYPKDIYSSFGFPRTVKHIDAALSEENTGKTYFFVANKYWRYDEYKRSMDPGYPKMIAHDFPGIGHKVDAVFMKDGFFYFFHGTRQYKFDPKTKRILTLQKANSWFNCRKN
Description: biochemical.

The nature of series [2]: effective blood concentrations after oral administration. The class given is in vivo. The note with it: no data given.

The source of these data is patent US5866717A, “Metalloproteinase inhibitors” (British Biotech Pharmaceuticals Limited, priority 1994, dated 1999).

Converted amounts (≈) assume the structure as drawn.

Sequence of Stromelysin-1 (P08254 100-477, species assumed): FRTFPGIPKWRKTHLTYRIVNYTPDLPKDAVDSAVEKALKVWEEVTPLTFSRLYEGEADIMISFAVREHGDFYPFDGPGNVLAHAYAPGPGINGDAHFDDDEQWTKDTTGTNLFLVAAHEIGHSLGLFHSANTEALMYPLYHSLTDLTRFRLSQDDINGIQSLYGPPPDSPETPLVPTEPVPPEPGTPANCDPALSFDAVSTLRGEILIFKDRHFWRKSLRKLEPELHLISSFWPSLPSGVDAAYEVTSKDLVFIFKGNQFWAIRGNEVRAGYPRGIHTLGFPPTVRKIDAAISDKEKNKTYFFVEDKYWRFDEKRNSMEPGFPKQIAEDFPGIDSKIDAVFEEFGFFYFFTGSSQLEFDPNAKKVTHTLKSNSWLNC

Regarding `COCCOCOCCNC(=O)[C@@H](NC(=O)[C@H](CC(C)C)[C@H](O)C(=O)NO)C(C)(C)C` [Example 1, 2S, N^1 -Dihydroxy-3R-isobutyl-N^4 -{1S-[2-(2-methoxy-ethoxymethoxy)-ethylcarbamoyl]-2,2-dimethyl-propyl}-succinamide], the IC50 on Getatinase A amounted to 15 nM; against Stromelysin-1, 60 nM; in series [1], 10 nM. Further, the solubility in the series “aqueous solubility” is at least 29600 µg/mL.

For the molecule `CNC(=O)[C@@H](NC(=O)[C@H](CC(C)C)C(CSc1cccs1)C(=O)NO)C(C)(C)C` (stereo partly drawn) [Comparator 3, N^1-(2,2-Dimethyl-1S-methylcarbamoyl-propyl)-N^4-hydroxy-2R -isobutyl-3-(thiophen-2-yl-sulfanylmethyl)-succinamide, reference compound], the IC50 on Getatinase A was 20 nM; against Stromelysin-1, 40 nM; in series [1] it was 1 nM. In addition, in “aqueous solubility”, the solubility was determined as 180 µg/mL (≈ 406 µM).

For the molecule `C=CC[C@H](C(=O)NO)[C@@H](CC(C)C)C(=O)N[C@H](C(=O)NC)C(C)(C)C` [Comparator 2, 2S-Allyl-N^4-(2,2-Dimethyl-1S-methylcarbamoyl-propyl)-N^4-hydroxy-3R-isobutyl-succinamide, reference compound], the IC50 against Getatinase A is 15 nM; in series [1] it was 4 nM. Besides, the solubility in “aqueous solubility” was 40 µg/mL (≈ 113 µM).

Take `C=CC[C@H](C(=O)NO)[C@@H](CC(C)C)C(=O)N[C@H](C(=O)NCCOCCOC)C(C)(C)C` [Example 4, 2S-Allyl-N^1-hydroxy-3R-isobutyl-N^4 -{1S-[2-(2-methoxy-ethoxy)-ethylcarbamoyl]-2,2-dimethyl-propyl}-succinamid]: the IC50 was found to be 7 nM at Getatinase A, 40 nM against Stromelysin-1 and 1 nM in series [1]. In addition, in series [2], the “effective blood concentrations (in words)” value was “high and prolonged effective blood concentrations”. Besides, the “aqueous solubility (in words)” value in “aqueous solubility” (presently preferred compound) is “good aqueous solubility”. Further, the solubility in the series “aqueous solubility” was 4700 µg/mL (≈ 10600 µM).

In the case of `COCCOCCOCCNC(=O)[C@@H](NC(=O)[C@H](CC(C)C)[C@H](CSc1cccs1)C(=O)NO)C(C)(C)C` [Example 9, N^4 -Hydroxy-2R-isobutyl-N^1-(1S{2-[2-(2-methoxy-ethoxy)-ethoxy]-ethylcarbamoyl}-2,2-dimethyl-propyl)-3S-(thiophen-2-yl-sulfanylmethyl)-succinamide], the results for the IC50 (against Getatinase A; at Stromelysin-1; in series [1]) were 9 nM, 10 nM and 2 nM, respectively. The solubility in the series “aqueous solubility” turned out to be 400 µg/mL (≈ 695 µM).

Consider `C=CC[C@H](C(=O)NO)[C@@H](CC(C)C)C(=O)N[C@H](C(=O)NCC(C)(COC)COC)C(C)(C)C` [Example 6, 2S-Allyl-N^4 -{1S-[2,2-di-(methoxymethyl)-propylcarbamoyl}-2,2-dimethyl-propyl]-N^1-hydroxy-3R-isobutyl-succinamide], for which the IC50 on Getatinase A amounted to 30 nM; at Stromelysin-1, 50 nM; in series [1], 20 nM. Further, in the series “aqueous solubility”, the solubility came to 400 µg/mL (≈ 848 µM).

In the case of `CNC(=O)[C@@H](NC(=O)[C@H](CC(C)C)[C@H](O)C(=O)NO)C(C)(C)C` [Comparator 1, N^4-(2,2-Dimethyl-1S-methylcarbamoyl-propyl)-2S, N^1-dihydroxy-3R -isobutyl-succinamide, reference compound], the solubility in “aqueous solubility” was found to be 7700 µg/mL (≈ 23200 µM).
